The values below come from patent publication US12466821B2 (Novartis AG, priority 2018, dated 2025).

Assay [1] has as its target human CMV DNA polymerase UL54 (Human cytomegalovirus (strain AD169) (HHV-5) (Human herpesvirus 5), UniProt P08546). Briefly: CMV polymerase biochemical assay (molecular beacon-based). The essentials:
(§1)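 Full-length wild-type N-terminal MBP-fusion polymerases from sf9 cells were used at 100 pM (CMV) or 625 pM (HSV) in Tris pH 7.5, 10 mM MgCl2, and preincubated with inhibitor for 30 min at RT. Reactions with 1.25 uM each dNTP, 200 nM primer and 100 nM molecular beacon ran 60 min (CMV) or 20 min (HSV) at RT. Fluorescence was read at 480/535 nm and IC50 derived.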

Assay [2] deals with human HSV DNA polymerase UL30 (Human herpesvirus 1 (strain 17) (HHV-1) (Human herpes simplex virus 1), UniProt P04293). Kind of assay: HSV polymerase biochemical assay (molecular beacon-based). In short, it runs like this:
as §1

Assay [3] deals with Luciferase-encoding HCMV, AD169 strain. Kind of assay: CMV Luciferase assay (cellular herpesvirus replication). The assay is classed as cell-based. Conditions: Human betaherpesvirus 5, AD169, read-out: CMV-Luc Cellular EC50. In short, it runs like this:
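Reporter HCMV AD169 with luciferase driven by late pp28 promoter, so signal requires viral DNA replication; NN-NHDF fibroblasts in 2% FBS medium, compound (0.0159–50 or 0.00318–10 μM, 0.5% DMSO) added 1 h before infection at MOI 1. Luminescence read 72 hpi; EC50 from 4-parameter fit of control-normalized %.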

Structures are written as SMILES.

Usually IC50 stands for the point on the concentration scale where inhibition reaches its midpoint. High values mean weaker potency, low ones greater potency. A word on the EC50: it is the midpoint of the concentration-response curve. As for `NS(=O)(=O)C1(CN2CCn3c(ccc(C(=O)NCc4ccc(Cl)cc4)c3=O)C2=O)CC1` [Example 72-2, N-(4-chlorobenzyl)-1,6-dioxo-2-((1-sulfamoylcyclopropyl)methyl)-2,3,4,6-tetrahydro-1H-pyrido[1,2-a]pyrazine-7-carboxamide], the concentration for half-maximal inhibition (IC50) in assay [1] came to 1.2 nM; in assay [2], 26.4 nM. In assay [3], the EC50 is 50.2 nM.

In the case of `CNC1(CN2CCn3c(ccc(C(=O)NCc4ccc(Cl)cc4)c3=O)C2=O)CC1` [Example 204, N-(4-chlorobenzyl)-2-((1-(methylamino)cyclopropyl)methyl)-1,6-dioxo-1,3,4,6-tetrahydro-2H-pyrido[1,2-a] pyrazine-7-carboxamide], the IC50 in assay [1] is 156 nM; in assay [2], 5470 nM. In addition, the concentration for a half-maximal effect (EC50) in assay [3] is 4040 nM.

Consider `N#Cc1ccc(CNC(=O)c2ccc3n(c2=O)CCN(CC2(S(=O)(=O)[C@@H]4CC4(F)F)CC2)C3=O)cc1` (single isomer, unassigned) [Example 100-2], for which the IC50 in assay [1] amounted to 1 nM; in assay [2] it was 39.5 nM. In addition, the EC50 in assay [3] worked out at 43.1 nM.

For `CC1(CS(=O)(=O)C2(CN3CCn4c(ccc(C(=O)NCc5ccc(C#N)cc5)c4=O)C3=O)CC2)COC1` [Example 103-2], the IC50 came out at 1.1 nM in assay [1] and 108 nM in assay [2]. Further, the 50% effective concentration (EC50) in assay [3] came to 1270 nM.

In the case of `N#Cc1ccc(CNC(=O)c2ccc3n(c2=O)CCN(CC2(S(=O)(=O)[C@@H]4CC4(F)F)CC2)C3=O)cc1F` (single isomer, unassigned) [Example 101-2], the values for the IC50 in assay [1] and in assay [2] were 0.6 nM and 32.9 nM, respectively. Also, the EC50 in assay [3] worked out at 29.6 nM.

Consider `N#Cc1ccc(CNC(=O)c2ccc3n(c2=O)CCN(CC2(S(=O)(=O)C4CCNC4)CC2)C3=O)cc1` (stereo not drawn) [Example 81-3], for which the half-maximal inhibitory concentration (IC50) is 7 nM in assay [1] and 216 nM in assay [2]. In addition, the EC50 in assay [3] amounted to 1190 nM.

For the molecule `O=C(NCc1ccc(Cl)cc1)c1ccc2n(c1=O)CCN(CCO)C2=O` [Example 116, N-(4-chlorobenzyl)-2-(2-hydroxyethyl)-1,6-dioxo-2,3,4,6-tetrahydro-1H-pyrido[1,2-a]pyrazine-7-carboxamide], the IC50 in assay [1] amounted to 2140 nM; in assay [2], 14100 nM. Moreover, the EC50 in assay [3] was 24700 nM.

As to `O=C(NCc1ccc(Cl)nc1)c1ccc2n(c1=O)CCN(CC1(S(=O)(=O)C3(CO)CC3)CC1)C2=O` [Example 50-2], the results for the IC50 in assay [1] and in assay [2] were 6.4 nM and 72.8 nM, respectively. In addition, the EC50 in assay [3] worked out at 122 nM.

In the case of `N#Cc1ccc(CNC(=O)c2ccc3n(c2=O)CCN(CC2(S(=O)(=O)CC4(C#N)CC4)CC2)C3=O)cc1` [Example 111], the IC50 in assay [1] was 3.6 nM; in assay [2], 59.5 nM. For the same molecule, the EC50 in assay [3] was 433 nM.

For `O=C(NCc1ccc(Cl)cc1)c1ccc2n(c1=O)CCN(CC1(S(=O)(=O)N3CCC3)CC1)C2=O` [Example 87, 2-((1-(azetidin-1-ylsulfonyl)cyclopropyl)methyl)-N-(4-chlorobenzyl)-1,6-dioxo-2,3,4,6-tetrahydro-1H-pyrido[1,2-a]pyrazine-7-carboxamide], the IC50 in assay [1] was 1.2 nM; in assay [2] it was 35.1 nM. Also, in assay [3], the EC50 worked out at 25.7 nM.

As for `CCc1cc(C(=O)NCc2ccc(Cl)cc2)c(=O)n2c1C(=O)N(CC1(S(C)(=O)=O)CC1)CC2` [Example 136], the IC50 was found to be 2.5 nM in assay [1] and 136 nM in assay [2]. In addition, the concentration for a half-maximal effect (EC50) in assay [3] was 86.7 nM.

Consider `COCC(C)(C)S(=O)(=O)C1(CN2CCn3c(ccc(C(=O)NCc4ccc(C#N)cc4)c3=O)C2=O)CC1` [Example 187], for which the IC50 in assay [1] was determined as 0.4 nM; in assay [2] it was 52.9 nM. Moreover, the EC50 in assay [3] was determined as 14.9 nM.

As to `N#Cc1ccc(CNC(=O)c2ccc3n(c2=O)CCN(CC2(S(=O)(=O)C4(C(F)F)CC4)CC2)C3=O)cc1F` [Example 99-2], the IC50 turned out to be 0.7 nM in assay [1] and 52.4 nM in assay [2]. Further, the EC50 in assay [3] turned out to be 30.1 nM.

Turning to `CC1CN(CCN(C)S(C)(=O)=O)C(=O)c2ccc(C(=O)NCc3ccc(Cl)cc3)c(=O)n21` (stereo not drawn) [Example 91, N-(4-chlorobenzyl)-4-methyl-2-(2-(N-methylmethylsulfonamido)ethyl)-1,6-dioxo-2,3,4,6-tetrahydro-1H-pyrido[1,2-a]pyrazine-7-carboxamide], the IC50 in assay [1] was determined as 186 nM; in assay [2] it was 2250 nM. For the same molecule, the EC50 in assay [3] was determined as 2480 nM.

For the molecule `N#Cc1ccc(CNC(=O)c2ccc3n(c2=O)CCN(CC2(S(=O)(=O)CCCO)CC2)C3=O)cc1` [Example 24], the values for the IC50 in assay [1] and in assay [2] were 4.7 nM and 168 nM, respectively. The EC50 in assay [3] came to 832 nM.

On to `CS(=O)(=O)CCCN1CCn2c(c(C#CCO)cc(C(=O)NCc3ccc(Cl)cc3)c2=O)C1=O` [Example 156], for which the IC50 was 913 nM in assay [1] and 2110 nM in assay [2]. The EC50 in assay [3] amounted to 50000 nM.

Consider `CCS(=O)(=O)C1(CN2CCn3c(ccc(C(=O)NCc4ccc(Cl)cc4)c3=O)C2=O)CC1` [Example 36], for which the IC50 in assay [1] amounted to 0.7 nM; in assay [2], 42.3 nM. Also, the EC50 in assay [3] worked out at 24.9 nM.

Regarding `N#Cc1ccc(CNC(=O)c2ccc3n(c2=O)CCN(CC2(S(=O)(=O)C4(O)CC4)CC2)C3=O)cc1` [Example 196, N-(4-cyanobenzyl)-2-((1-((1-hydroxycyclopropyl)sulfonyl)cyclopropyl)methyl)-1,6-dioxo-1,3,4,6-tetrahydro-2H-pyrido[1,2-a]pyrazine-7-carboxamide], the IC50 was determined as 7.7 nM in assay [1] and 205 nM in assay [2]. For the same molecule, the EC50 in assay [3] was 509 nM.

For `CS(=O)(=O)C1(CN2CCn3c(ccc(C(=O)NCc4ccc(C#N)c(F)c4)c3=O)C2=O)CC1` [Example 39], the IC50 in assay [1] amounted to 3.5 nM; in assay [2] it was 105 nM. The half-maximal effective concentration (EC50) in assay [3] turned out to be 102 nM.

As to `Cc1cc(C(=O)NCc2ccc(Cl)cc2)c(=O)n2c1C(=O)N(CCCS(C)(=O)=O)CC2` [Example 152], the concentration for half-maximal inhibition (IC50) in assay [1] is 653 nM; in assay [2], 1670 nM. Besides, the EC50 in assay [3] stood at 9190 nM.

Consider `N#Cc1ccc(CNC(=O)c2ccc3n(c2=O)CCN(CC2(S(=O)(=O)C4COC4)CC2)C3=O)cc1` [Example 28], for which the concentration for half-maximal inhibition (IC50) worked out at 2.7 nM in assay [1] and 68.7 nM in assay [2]. Besides, the EC50 in assay [3] was found to be 116 nM.

`CC(C)(C)S(=O)(=O)C1(CN2CCn3c(ccc(C(=O)NCc4ccc(C#N)cc4)c3=O)C2=O)CC1` [Example 27]: the figures for the IC50 in assay [1] and in assay [2] were 0.3 nM and 25.2 nM, respectively. In addition, the EC50 in assay [3] came to 6.8 nM.

In the case of `C[S@@+]([O-])C1(CN2CCn3c(ccc(C(=O)NCc4ccc(C#N)cc4)c3=O)C2=O)CC1` [Example 68-2], the concentration for half-maximal inhibition (IC50) worked out at 62.2 nM in assay [1] and 2730 nM in assay [2]. In addition, the EC50 in assay [3] was 2860 nM.

As to `Cc1cc(C(=O)NCc2ccc(F)cc2)c(=O)n2c1C(=O)N(CC1(S(C)(=O)=O)CC1)CC2` [Example 86-1], the IC50 in assay [1] stood at 11.2 nM; in assay [2], 287 nM. Moreover, the EC50 in assay [3] is 1520 nM.

Turning to `CC(C)(c1ncno1)S(=O)(=O)C1(CN2CCn3c(ccc(C(=O)NCc4ccc(C#N)cc4)c3=O)C2=O)CC1` [Example 179], the IC50 in assay [1] worked out at 0.4 nM; in assay [2] it was 16.9 nM. Further, the EC50 in assay [3] came out at 125 nM.

Consider `O=C(NCc1ccc(Cl)cc1)c1ccc2n(c1=O)CCN(CC1(S(=O)(=O)C3CCOCC3)CC1)C2=O` [Example 105-1, N-(4-chlorobenzyl)-1,6-dioxo-2-((1-((tetrahydro-2H-pyran-4-yl)sulfonyl)cyclopropyl)methyl)-2,3,4,6-tetrahydro-1H-pyrido[1,2-a]pyrazine-7-carboxamide], for which the IC50 in assay [1] was 1.5 nM; in assay [2] it was 39.7 nM. Also, the EC50 in assay [3] came out at 50.1 nM.

Consider `CC(C)(C)S(=O)(=O)C1(CN2CCn3c(ccc(C(=O)NCc4ccc(C#N)c(F)c4)c3=O)C2=O)CC1` [Example 26], for which the IC50 in assay [1] is 0.6 nM; in assay [2] it was 45.5 nM. Moreover, the 50% effective concentration (EC50) in assay [3] was 8.9 nM.

As to `N#Cc1ccc(CNC(=O)c2ccc3n(c2=O)CCN(CC2(S(=O)(=O)[C@H]4CC4(F)F)CC2)C3=O)cc1` (single isomer, unassigned) [Example 100-1], the IC50 amounted to 1.4 nM in assay [1] and 48.2 nM in assay [2]. The EC50 in assay [3] came to 93.6 nM.

Turning to `N#Cc1ccc(CNC(=O)c2ccc3n(c2=O)CCN(CC2(S(=O)(=O)C4(CO)CC4)CC2)C3=O)cc1F` [Example 12], the IC50 in assay [1] stood at 0.4 nM; in assay [2] it was 23.5 nM. Also, the EC50 in assay [3] turned out to be 19.7 nM.

Consider `CS(=O)(=O)C1(CN2CCn3c(c(C4CC4)cc(C(=O)NCc4ccc(Cl)cc4)c3=O)C2=O)CC1` [Example 132], for which the figures for the IC50 in assay [1] and in assay [2] were 3.1 nM and 138 nM, respectively. For the same molecule, the EC50 in assay [3] turned out to be 70.7 nM.

For the molecule `O=C(NCc1ccc(Cl)cc1)c1ccc2n(c1=O)CCN(CC1(C(=O)N3CCCC3)CC1)C2=O` [Example 210], the IC50 in assay [1] is 25.7 nM; in assay [2] it was 428 nM. Besides, the EC50 in assay [3] is 494 nM.

Turning to `O=C(NCc1ccc(Cl)cc1)c1ccc2n(c1=O)CCN(CCS(=O)(=O)C1CC1)C2=O` [Example 193], the IC50 in assay [1] was determined as 34.1 nM; in assay [2], 420 nM. The EC50 in assay [3] turned out to be 1240 nM.

Turning to `CN(C)C(=O)OC1(CN2CCn3c(ccc(C(=O)NCc4ccc(Cl)cc4)c3=O)C2=O)CC1` [Example 172, 1-((7-((4-chlorobenzyl)carbamoyl)-1,6-dioxo-1,3,4,6-tetrahydro-2H-pyrido[1,2-a]pyrazin-2-yl)methyl)cyclopropyl dimethyl carbamate], the IC50 came out at 2400 nM in assay [1] and 71000 nM in assay [2]. For the same molecule, the half-maximal effective concentration (EC50) in assay [3] is 10000 nM.
